# According to the supplement of paper PMC10307832:
# Experiments:
# Assay in all cases: relative viability (nuclei count vs DMSO), 5 days (fraction); higher = more cells survive
# Ispinesib + Foretinib = compound: Cc1ccc(C(=O)N(CCCN)[C@@H](c2nc3cc(Cl)ccc3c(=O)n2Cc2ccccc2)C(C)C)cc1 [Ispinesib] + COc1cc2c(Oc3ccc(NC(=O)C4(C(=O)Nc5ccc(F)cc5)CC4)cc3F)ccnc2cc1OCCCN1CCOCC1 [Foretinib] (partner 0.25 µM)
# Procedure, shortened: (§1)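 Lung cancer cell lines in 1536-well plates got either a single drug or a fixed anchor-drug dose together with five library-drug doses (not always all listed) in √10 steps, by pin tool, on the day after seeding. Nuclei were counted after 5 days, and relative viability is the treated-to-vehicle ratio of nuclei counts. Values are medians of duplicate plates.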
# Linsitinib + Lapatinib = compound: C[C@]1(O)C[C@@H](c2nc(-c3ccc4ccc(-c5ccccc5)nc4c3)c3c(N)nccn32)C1 [Linsitinib] + CS(=O)(=O)CCNCc1ccc(-c2ccc3ncnc(Nc4ccc(OCc5cccc(F)c5)c(Cl)c4)c3c2)o1 [Lapatinib] (partner 2 µM)
# Procedure, shortened: as §1
# Ispinesib + Alpelisib = compound: Cc1ccc(C(=O)N(CCCN)[C@@H](c2nc3cc(Cl)ccc3c(=O)n2Cc2ccccc2)C(C)C)cc1 [Ispinesib] + Cc1nc(NC(=O)N2CCC[C@H]2C(N)=O)sc1-c1ccnc(C(C)(C)C(F)(F)F)c1 [Alpelisib] (partner 2 µM)
# Procedure, shortened: as §1
# Ispinesib + Trametinib = compound: Cc1ccc(C(=O)N(CCCN)[C@@H](c2nc3cc(Cl)ccc3c(=O)n2Cc2ccccc2)C(C)C)cc1 [Ispinesib] + CC(=O)Nc1cccc(-n2c(=O)n(C3CC3)c(=O)c3c(Nc4ccc(I)cc4F)n(C)c(=O)c(C)c32)c1 [Trametinib] (partner 0.02 µM)
# Procedure, shortened: as §1
Cell Line,relative viability (Ispinesib + Foretinib; first compound 0.001 µM),relative viability (Ispinesib + Foretinib; first compound 0.003162 µM),relative viability (Ispinesib + Foretinib; first compound 0.01 µM),relative viability (Ispinesib + Foretinib; first compound 0.03162 µM),relative viability (Ispinesib + Foretinib; first compound 0.1 µM),relative viability (Linsitinib + Lapatinib; first compound 0.01 µM),relative viability (Linsitinib + Lapatinib; first compound 0.03162 µM),relative viability (Linsitinib + Lapatinib; first compound 0.1 µM),relative viability (Linsitinib + Lapatinib; first compound 1 µM),relative viability (Ispinesib + Alpelisib; first compound 0.001 µM),relative viability (Ispinesib + Alpelisib; first compound 0.003162 µM),relative viability (Ispinesib + Alpelisib; first compound 0.01 µM),relative viability (Ispinesib + Alpelisib; first compound 0.03162 µM),relative viability (Ispinesib + Alpelisib; first compound 0.1 µM),relative viability (Ispinesib + Trametinib; first compound 0.001 µM),relative viability (Ispinesib + Trametinib; first compound 0.003162 µM),relative viability (Ispinesib + Trametinib; first compound 0.01 µM),relative viability (Ispinesib + Trametinib; first compound 0.03162 µM),relative viability (Ispinesib + Trametinib; first compound 0.1 µM),relative viability (Linsitinib + Lapatinib; first compound 0.3162 µM)
HOP-62,1.11,1.32,1.35,1.11,0.601,1.06,1.15,1.01,0.631,0.656,0.957,0.908,1.17,0.981,0.349,0.373,0.406,0.441,0.42,
LC-2-ad,0.892,0.863,1.09,0.63,0.361,0.934,0.691,0.941,0.766,0.932,0.94,1.06,0.697,0.268,0.934,0.944,0.92,0.9,0.474,0.332
LCLC-97TM1,0.928,0.948,0.933,0.856,0.56,0.953,0.75,0.639,0.193,0.282,0.23,0.324,0.211,0.159,0.219,0.238,0.219,0.169,0.137,0.403
LK-2,1.25,1.21,1.43,1.2,0.617,0.899,0.995,0.844,0.695,1.33,0.97,1.23,1.07,0.412,0.742,0.819,0.801,0.751,0.516,0.657
LOU-NH91,0.917,0.879,0.957,0.829,0.472,0.698,0.655,0.706,0.579,0.724,0.705,0.751,0.607,0.553,0.772,0.774,0.814,0.725,0.309,0.741
LU99A,0.835,0.858,0.814,0.55,0.428,0.953,0.951,0.952,0.57,0.527,0.572,0.66,0.318,0.208,0.514,0.579,0.577,0.335,0.352,0.377
LXF-289,0.911,0.978,1.09,0.894,0.895,0.924,0.911,0.901,0.886,1.06,1.05,1.16,0.993,0.733,0.667,0.729,0.762,0.629,0.606,0.643
NCI-H23,1.05,1.03,1.17,0.934,0.299,1.19,0.904,1.04,0.587,0.547,0.679,0.785,0.731,0.459,0.372,0.472,0.32,0.358,0.208,0.21
NCI-H322M,1.09,0.994,0.957,0.498,0.43,0.63,0.612,0.567,0.507,0.866,0.889,0.846,0.467,0.66,0.529,0.586,0.449,0.514,0.467,0.933
NCI-H358,0.694,0.695,0.702,0.28,0.123,0.423,0.388,0.388,0.303,0.885,0.874,0.989,0.573,0.283,0.126,0.131,0.128,0.115,0.106,0.366
NCI-H460,0.901,0.995,1.13,0.879,0.0487,1,0.784,1.03,0.868,0.584,0.45,0.667,0.0767,0.0288,0.225,0.207,0.218,0.0463,0.0454,0.699
NCI-H520,0.906,0.832,0.866,0.379,0.306,0.934,0.462,0.979,0.929,1.04,0.98,0.767,0.276,0.243,0.775,0.663,0.557,0.229,0.221,
NCI-H596,0.87,0.859,0.791,0.795,0.434,1.05,1.07,1.05,0.991,0.563,0.427,0.583,0.458,0.394,0.745,0.876,0.799,0.83,0.706,0.965
NCI-H647,1.26,1.32,1.41,0.703,0.191,1.12,1.11,1.09,0.854,1.38,1.26,1.66,0.192,0.14,0.536,0.508,0.434,0.209,0.133,
NCI-H650,1.04,1.04,1.09,0.985,0.896,0.701,0.926,0.871,0.646,1.11,1.23,1.29,1.05,0.353,0.969,1.07,1.03,0.828,0.779,
NCI-H661,0.943,1.03,0.988,0.71,0.27,0.566,0.501,0.514,0.424,0.593,0.972,0.745,0.369,0.508,0.625,0.616,0.567,0.274,0.277,0.691
NCI-H727,0.944,0.873,0.933,0.91,0.718,0.716,0.724,0.863,0.377,,0.565,0.545,0.486,0.404,0.376,0.39,,0.382,0.419,0.428
NCI-H838,1.07,1.14,1.16,1,0.555,0.963,0.929,0.883,0.591,1.17,1.06,1.1,1.04,0.426,0.627,0.529,0.542,0.359,0.164,0.286
NCI-H1355,0.991,1.01,1.24,0.95,0.444,1.04,0.983,0.865,0.546,0.841,0.866,0.979,0.596,0.859,0.469,0.456,0.41,0.414,0.288,0.547
NCI-H1395,1.06,0.998,1.03,0.866,0.356,1.08,0.803,1.12,0.906,1.14,0.945,0.87,0.398,0.493,1.13,1.1,1.06,0.682,0.409,0.83
NCI-H1437,1.3,1.39,1.39,1.27,0.748,0.758,0.787,0.811,0.715,1.11,1.14,0.972,0.893,0.272,0.557,0.541,0.688,0.614,0.144,0.551
NCI-H1651,0.973,0.768,1.01,0.561,0.147,0.761,0.772,0.78,0.566,0.957,0.99,1.26,1.05,0.206,0.836,0.896,0.887,0.882,0.831,0.667
NCI-H1666,1.03,0.989,0.903,0.918,0.539,0.806,0.506,0.477,0.183,1.07,0.936,0.988,0.567,0.388,0.934,0.864,0.788,0.858,0.604,0.163
NCI-H1734,0.809,0.859,1.08,0.827,0.343,1.05,1.15,1.05,0.778,0.659,0.743,0.763,0.721,0.517,0.685,0.622,0.684,0.684,0.429,0.714
NCI-H1755,0.909,0.987,1.01,0.874,0.737,1.01,1.02,1.04,0.876,1.09,1.03,1.16,0.815,0.547,0.843,0.838,0.751,0.713,0.758,0.54
NCI-H1793,0.711,0.585,0.958,0.637,0.194,0.786,0.822,0.751,0.478,0.677,0.713,1.17,0.783,0.328,0.47,0.433,0.412,0.421,0.244,0.43
NCI-H1915,1.15,1.16,1.33,1.03,0.425,0.984,1.01,0.981,0.723,1.09,1.16,1.03,0.958,0.979,0.29,0.323,0.314,0.279,0.22,0.608
